Molecular target: T1, rh-proNGF (Homo sapiens, UniProt P01138)
T1 construct: gene NGF; proNGF without signal peptide; homodimer
Assay: ITC, global fit of two titrations (SEDPHAT)
Type: binding
Settings: read-out: Best-fit value
From the text: ITC, global fit of two titrations (SEDPHAT) on rh-proNGF

T1 sequence (P01138 19-241): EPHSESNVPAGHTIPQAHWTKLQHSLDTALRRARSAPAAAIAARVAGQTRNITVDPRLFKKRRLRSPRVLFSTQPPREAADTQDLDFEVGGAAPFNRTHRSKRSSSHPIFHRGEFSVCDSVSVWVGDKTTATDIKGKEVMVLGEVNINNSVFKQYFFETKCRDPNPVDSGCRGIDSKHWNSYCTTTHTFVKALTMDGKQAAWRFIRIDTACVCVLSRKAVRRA

Nc1ncnc2c1ncn2[C@@H]1O[C@H](COP(=O)(O)OP(=O)(O)OP(=O)(O)O)[C@@H](O)[C@H]1O [ATP]
Kd: 39.7 µM
